What follows are molecules tested on P. falciparum stage V gametocytes (assay: Gametocytocidal ATP bioluminescence assay (single point 5 μM and 1 μM, dose-response)). Conditions: P. falciparum gametocytes, 5 μM single concentration, 48 h, decrease of ATP level (S1 Table).
Format: cell-based, Plasmodium falciparum
Experimental: Purified stage IV-V gametocytes were obtained as previously described [10]. Single point ATP bioluminescence assay and dose–response of positive hits was determined in accordance with the previously published protocol [10].

| Compound | % Inhibition |
| --- | --- |
| CCOc1ccc(NC(=O)c2cccc(CN3CCCN(Cc4cccc(O)c4)CC3)c2)cc1 [TCMDC-135987] | -5% |
| CN(c1cc(NC(=O)c2cccs2)ccn1)C1CCN(Cc2cccc(C#N)c2)CC1 [TCMDC-134970] | 40% |
| N=C(N)c1ccc(-c2cc3ccc(C(=N)N)cc3[nH]2)cc1 [TCMDC-123458] | 53% |
| O=C(Nc1ccc(OC2CCN(Cc3ccccc3)CC2)c(Cl)c1)c1ccco1 [TCMDC-133966] | 63% |
| COc1cc(Cc2cnc(N)nc2N)c2c(c1OC)OC(C)(C)C=C2 [TCMDC-138038] | -2.79% |
| Cc1ccc(Oc2ncccc2C(=O)Nc2cccc3cccnc23)c(C)c1 [TCMDC-125499] | -13% |
| Cc1cc(NC(=O)Nc2ccc3nc(C)oc3c2)c2cc(Cl)ccc2n1 [TCMDC-140076] | 38% |
| O=C(Nc1ccc(OC2CCN(Cc3ccccc3)CC2)c(Cl)c1)c1ccc(F)cc1 [TCMDC-133967] | 19% |
| CCCCCCNC(=O)C1Cc2c([nH]c3ccccc23)C2(CCN(CCc3ccccc3)CC2)N1 (stereo not drawn) [TCMDC-141085] | -58% |
| O=C(Nc1ccc(CN2CCC(c3c[nH]c4ccc(O)cc34)CC2)cc1)c1ccc(-c2ccccc2)cc1 [TCMDC-139068] | -139% |
| C1=C(c2c[nH]c3ccccc23)CCN(Cc2ccccc2)C1 [TCMDC-123457] | -71% |
| Clc1ccc2c(NCCc3ccccn3)ccnc2c1 [TCMDC-123461] | 8% |
| CC(C)NC(C)(C)CN(Cc1ccc(-c2ccc(C(F)(F)F)cc2)cc1)C(=O)Cn1c(CCc2cccc(F)c2F)nc(=O)c2ccccc21 [TCMDC-141084] | 72% |
| COc1ccc2nccc([C@@H](O)CN3CCC(NCc4ccc5scnc5c4)CC3)c2c1 [TCMDC-141081] | 10% |
| Cc1cccc(CN2CCC(Oc3ccc(NC(=O)c4cccs4)cc3Cl)CC2)n1 [TCMDC-133964] | 24% |
| Cc1cccc2nc(-c3cccc(-c4ccc(NC(=O)Cc5ccc[n+]([O-])c5)cc4)c3)[nH]c12 [TCMDC-136993] | -16% |
| N#Cc1c(N2CCN(c3ccc(F)cc3)CC2)nc(N)c2c(N)nc3c(c12)CC(=O)N3C1CC1 [TCMDC-124490] | 44% |
| CC(C)(C)c1ccc(NC(=O)c2cccc(CN3CCCN(Cc4ccc(F)cc4)CC3)c2)cc1 [TCMDC-135985] | -30% |
| CC(=O)c1c(C)[nH]c(C(=O)Nc2ccc(-c3nc4ccc(C)cc4s3)cc2)c1C [TCMDC-124493] | 55% |
| Cc1cc(NC(=O)c2ccco2)ccc1OC1CCN(Cc2ccccc2)CC1 [TCMDC-133965] | 12% |

| Compound | % Inhibition |
| --- | --- |
| C=CCOc1cc(Cc2cnc(N)nc2N)cc(OC)c1OC [TCMDC-138042] | -4% |
| Nc1nc(N)c2c(ccc3ccccc32)n1 [TCMDC-131942] | 19% |
| COc1cc(C(=O)NC2CCN(Cc3ccccc3)CC2)ccc1-c1nc2cc(Cl)c(Cl)cc2[nH]1 [TCMDC-140078] | -56% |
| COc1ccc(CN2CCCN(Cc3cccc(C(=O)Nc4ccc(C(C)(C)C)cc4)c3)CC2)cc1 [TCMDC-135986] | 5.59% |
| CC1CCN(C(=O)C(Cc2c[nH]c3ccccc23)NS(=O)(=O)c2ccc(Cl)cc2)CC1 (stereo not drawn) [TCMDC-124494] | 54% |
| COc1cc2nc(C)nc(Nc3ccc(Cc4ccccc4)cc3)c2cc1OC [TCMDC-131941] | 1.46% |
| COC(=O)CCCCOc1cc(Cc2cnc(N)nc2N)cc(OC)c1OC [TCMDC-138041] | 2% |
| COc1cc2ncnc(Nc3ccc(OCc4ccccc4)c(I)c3)c2cc1OC [TCMDC-131944] | -25% |
| CN(Cc1cccc(C#N)c1)C1CCN(c2cc(NC(=O)c3ccc(F)cc3)ccn2)CC1 [TCMDC-134974] | -6% |
| Ic1cc(Nc2ncnc3ccsc23)ccc1OCc1ccccc1 [TCMDC-131945] | 8% |
| COc1ccc2nccc([C@@H](O)CN3CCC(NCc4nc5c(OCc6ccccc6)cccc5[nH]4)CC3)c2c1 [TCMDC-141083] | 34% |
| Clc1ccc(-c2nc3ccc(-c4ccc5nc(-c6ccc(Cl)cc6)[nH]c5c4)cc3[nH]2)cc1 [TCMDC-123460] | 1.65% |
| Cc1nc(C)c(CC(=O)Nc2cccc(-c3cccc(-c4nc5ccc(C(F)(F)F)cc5[nH]4)c3)c2)s1 [TCMDC-136995] | 4.51% |
| CNc1c2c(nc3ccc(NC(=O)CCCCCCc4ccccc4)cc13)CCCC2 [TCMDC-139066] | 79% |
| CN(Cc1cccc(C#N)c1)C1CCN(c2cc(NC(=O)c3cccc(F)c3)ccn2)CC1 [TCMDC-134972] | 21% |
| CC(CN1CCN(CC(c2ccc(F)cc2)N2CCN(C)CC2)CC1)C(=O)c1ccc(O)cc1.O=C(O)/C=C\C(=O)O (stereo not drawn) [TCMDC-125496] | 30% |
| COc1ccc2[nH]cc(C3CCN(Cc4ccc(NC(=O)c5ccc(-c6ccccc6)cc5)cc4)CC3)c2c1 [TCMDC-139069] | 8% |
| COc1cc(Cc2cnc(N)nc2N)cc(OCCCC#N)c1OC [TCMDC-138040] | -4.21% |
| COc1cc(C(=O)NCCCN2CCN(c3cc(Cl)ccc3OC)CC2)ccc1-c1nc2cc(Cl)c(Cl)cc2[nH]1 [TCMDC-140079] | 4.42% |
| COc1ccc(NC2=C(c3ccccc3)C(=O)c3ccccc32)cn1 [TCMDC-125501] | 37% |

| Compound | % Inhibition |
| --- | --- |
| O=C1C(c2ccccc2)=C(Nc2cccc(OC(F)(F)C(F)F)c2)c2ccccc21 [TCMDC-125498] | 66% |
| Cc1cccc2nc(-c3cccc(-c4cccc(NC(=O)Cc5ccc[n+]([O-])c5)c4)c3)[nH]c12 [TCMDC-136992] | 25% |
| Nc1nc(N)c2c(Sc3ccccc3)cccc2n1 [TCMDC-131943] | 9% |
| CNC(=O)c1cc(NCCCNCc2ccc(Cl)c(C(F)(F)F)c2)nc2ccccc12 [TCMDC-141082] | 73% |
| Cc1cccc(CN2CCCN(Cc3cccc(C(=O)Nc4ccc(C(C)(C)C)cc4)c3)CC2)c1 [TCMDC-135984] | -91% |
| Nc1ccnc2ccc(NC(=O)CCCCCc3ccccc3)cc12 [TCMDC-139070] | 2% |
| Cc1ccnc2nc(C(=O)Nc3cc(C(F)(F)F)ccc3N3CCCCC3)nn12 [TCMDC-124492] | -24% |
| C=CCc1cc(Cc2cnc(N)nc2N)cc(CCC)c1OC [TCMDC-138039] | 23% |
| CC(=O)Nc1ccc(CN2CCC(N(C)c3cc(NC(=O)c4cccs4)ccn3)CC2)cc1 [TCMDC-134971] | -7% |
| CCc1ccc(NC(=O)c2cccc(CN3CCCN(CC4CCCCC4)CC3)c2)cc1 [TCMDC-135988] | -39% |
| O=C(NCCCN1CCN(c2cccc(Cl)c2)CC1)c1ccc(-c2nc3cc(Cl)c(Cl)cc3[nH]2)cc1 [TCMDC-140077] | 1.64% |
| Cc1cccc(C(=O)Nc2ccnc(N3CCC(N(C)Cc4cccc(C#N)c4)CC3)c2)c1 [TCMDC-134973] | -4.57% |
| COc1ccc(Cl)cc1NC(=O)Nc1cc(C)nc2ccccc12 [TCMDC-125497] | -50% |
| CN(CC(=O)Nc1ccc(F)c(F)c1F)c1ncnc2sc(-c3ccccc3)cc12 [TCMDC-124491] | 23% |
| OC(CN1CCN(c2cccc(Cl)c2)CC1)C(c1ccccc1)c1ccccc1 (stereo not drawn) [TCMDC-123456] | 0.238% |
| O=C(/C=C/c1ccc(Cl)c(Cl)c1)N1CCC(CCN2CCC(c3c[nH]c4ccncc34)CC2)CC1 [TCMDC-140075] | 91% |
| CO/C(=C\C=C\c1cc2cc(Cl)c(Cl)cc2[nH]1)C(=O)NC1CC2CCCC(C1)N2C (stereo not drawn) [TCMDC-139067] | 19% |
| Cc1nc(C)c(CC(=O)Nc2ccc(-c3cccc(-c4nc5ccc(C(F)(F)F)cc5[nH]4)c3)cc2)s1 [TCMDC-136996] | -50% |

Same assay, conditions: Plasmodium falciparum; P. falciparum gametocytes, 5 μM single concentration, 48 h, decrease of ATP level (S1 Table)

| Compound | inhibition at 5 µM |
| --- | --- |
| Cc1nc(C)c(CC(=O)Nc2ccc(-c3ccc(-c4nc5cc(C(F)(F)F)ccc5[nH]4)s3)cc2)s1 [TCMDC-136994] | 7% |
| COC(=O)c1cccc(CNCc2cccc(-c3cccc(-c4nc5ccccc5[nH]4)c3)c2)c1 [TCMDC-132961] | 33% |
| Cc1cccc2nc(-c3cccc(-c4cccc(CNCc5cnn(-c6ccccc6)n5)c4)c3)[nH]c12 [TCMDC-132963] | 8% |
| c1ccc(-n2ncc(CNCc3ccc(-c4ccc(-c5nc6ccccc6[nH]5)s4)cc3)n2)cc1 [TCMDC-132962] | 1% |
| COC(=O)c1cccc(CNCc2cccc(-c3cccc(-c4nc5cc(F)ccc5[nH]4)c3)c2)c1 [TCMDC-132960] | 6% |

Same assay, conditions: Plasmodium falciparum; gametocytes, primary screen at 5 μM (S9 Table, CSA analogs)

| Compound | inhibition at 5 µM |
| --- | --- |
| CN(C)CCNCc1ccc(-c2ccc(-c3nc4ccccc4[nH]3)s2)cc1 [TCMDC-132683] | 58.1% |
| c1ccc2[nH]c(-c3ccc(-c4ccc(CNC5CC5)cc4)s3)nc2c1 [TCMDC-132675] | -17.6% |
| CNCCNCc1ccc(-c2ccc(-c3nc4ccccc4[nH]3)s2)cc1 [TCMDC-132824] | 82.1% |
| CC(C)CN(C)Cc1ccc(-c2ccc(-c3nc4ccccc4[nH]3)s2)cc1 [TCMDC-136786] | -17.4% |

Same assay, conditions: gametocytes, primary screen at 5 μM (S10 Table, MCSI analogs)

| Compound | %_Inh |
| --- | --- |
| Cc1cccc2nc(-c3ccc(-c4ccc(CN5CCN(C6CCN(C)CC6)CC5)cc4)s3)[nH]c12 [TCMDC-133866] | 106.989% |
| Cc1cccc2nc(-c3ccc(-c4cccc(CNCc5ccc(CN)cc5)c4)s3)[nH]c12.O=C(O)C(F)(F)F [TCMDC-132812] | 115.306% |

Source: publication PMC4552634, “A New Set of Chemical Starting Points with Plasmodium falciparum Transmission-Blocking Potential for Antimalarial Drug Discovery” (PLoS ONE, 2015)
